Test results from patent US20140341922A1, “Method for Overcoming Tolerance to Targeted Anti-Cancer Agent” (SUN R&DB Foundation, priority 2011, published 2014).

Legend:
[1] = test system: LN686, FADU, H226B, OSC19, and UMSCC38 cells; assay: MTS cell proliferation, combined treatment in PCPs; type: cell-based, human; settings: 7 days
Protocol: Cells were cultured in 96-well poly(poly-2-hydroxyethyl methacrylate [HEMA])-coated plates (PCPs) or ultra-low attached plates (UAPs). Control IgG1 (25 μg/ml), cixutumumab (25 μg/ml), PP2 (10 μM), and an integrin β3 neutralizing antibody B3A (10 μg/ml) were diluted in culture media containing 10% FBS or IGF-1 and treated alone or in combination. To examine the effect on cancer cell proliferation, a 3-(4,5-dimethylthiazol-2-yl)-2,5-diphenyltetrazolium bromide (MTT) or 3-(4,5-dimethylthiazol-2-yl)-5-(3-carboxymethoxyphenyl)-2-(4-sulfophenyl)-2H-tetrazolium (MTS) assay was performed, and to evaluate the effect on anchorage-independent colony formation, a soft agar colony formation assay was performed according to a method in our previous report (Morgillo et al., 2006).
In addition, the LN686, FADU, H226B, OSC19, and UMSCC38 cells grown in PCPs were untreated or treated with cixutumumab (25 μg/ml), anti-integrin β3 mAb (αβ3, 10 μg/ml), PP2 (10 μM), or a combination thereof for 7 days. Each bar represents the mean±SD of 6 wells treated with the same sample in one representative experiment.

[2] = test system: integrin β3/Src signaling; assay: Western blot after integrin β3 or Src blockade; type: cell-based, human; parameters: p-EGFR, p-Src, and p-Akt levels: dose or concentration left out as unconfirmed
Protocol: Specifically, cixutumumab-resistant cells (LN686 and FADU) and cixutumumab-sensitive cells (OSC19) grown in PCPs were treated with B3A […] or PP2 […] for 1 hour prior to activation with IGF-1 (100 ng/ml).
In addition, the LN686 and FADU cells grown in the PCPs were untreated or treated with cixutumumab ([…]), PP2 (10 μM), an anti-integrin β1 monoclonal antibody (A11B2, 10 μg/ml), Ad-EV or Ad-CSK (10 pfu/cell) for 7 days prior to stimulation with IGF-1 (100 ng/ml, 30 min), and to detect the proteins, western blot analysis was performed.

CC(C)(C)n1nc(-c2ccc(Cl)cc2)c2c(N)ncnc21 [PP2]
antiproliferative activities of cixutumumab on combined treatment ([1]; cixutumumab-resistant cells (LN686, FADU, H226B)): significantly augmented
antiproliferative activities of cixutumumab on combined treatment ([1]; cixutumumab-sensitive cells (OSC19 and UMSCC38)): not
p-EGFR, p-Src, and p-Akt levels ([2]; LN686, FADU and OSC19, 6 h): marked decreases
cixutumumab-induced increases in p-Src, p-FAK, p-EGFR, p-Akt, and p-mTOR ([2]; LN686 or FaDu cells, integrin β3 mAb 100 μg/ml or PP2 10 μM): almost completely blocked
